Test results reported in ChEMBL document CHEMBL3045826, “Synthesis of new derivatives of 2,2-dimethyl-2,3-dihydro-7-benzo[b]furanol with potential antimicrobial activity” (Med Chem Res, 2009).
≈ marks a conversion by molar mass, not a printed value. Calls of active or inactive are those of the source. The calls are words filed in the database; no cut-off is given here.

Key:
Pseudomonas aeruginosa [1] = assay: Antibacterial activity against Pseudomonas aeruginosa ATCC 15442 after 18 hr; assay type: functional; conditions: ATCC 15442, 18 h
Proteus vulgaris [2] = assay: Antibacterial activity against Proteus vulgaris NCTC 4635 after 18 hr; assay type: functional; conditions: NCTC 4635, 18 h
Pseudomonas aeruginosa [3] = assay: Antibacterial activity against Pseudomonas aeruginosa NCTC 6749 after 18 hr; assay type: functional, organism-based
Escherichia coli [4] = assay: Antibacterial activity against Escherichia coli NCTC 8196 after 18 hr; assay type: functional, organism-based
Escherichia coli [5] = assay: Antibacterial activity against Escherichia coli ATCC 10538 after 18 hr; assay type: functional, organism-based
Enterococcus hirae [6] = assay: Antibacterial activity against Enterococcus hirae ATCC 10541 after 18 hr; assay type: functional; conditions: ATCC 10541, 18 h
Escherichia coli [7] = assay: Antibacterial activity against Escherichia coli ATCC 25922 after 18 hr; assay type: functional, organism-based
Bacillus subtilis [8] = assay: Antibacterial activity against Bacillus subtilis ATCC 6633 after 18 hr; assay type: functional; conditions: ATCC 6633, 18 h
Staphylococcus aureus [9] = assay: Antibacterial activity against Staphylococcus aureus ATCC 29213 after 18 hr; assay type: functional; conditions: ATCC 29213, 18 h
Staphylococcus aureus [10] = assay: Antibacterial activity against Staphylococcus aureus ATCC 6538P after 18 hr; assay type: functional
Staphylococcus aureus [11] = assay: Antibacterial activity against Staphylococcus aureus NCTC 4163 after 18 hr; assay type: functional; conditions: NCTC 4163, 18 h
Staphylococcus aureus [12] = assay: Antibacterial activity against Staphylococcus aureus ATCC 25923 after 18 hr; assay type: functional; conditions: ATCC 25923, 18 h
Candida parapsilosis [13] = assay: Antifungal activity against Candida parapsilosis ATCC 22019 at 400 ug after 24 to 48 hr by disk diffusion method; assay type: functional; conditions: for zone of inhibition at 400 µg/disc: Lodderomyces parapsilosis, read-out: DIZ
Candida albicans [14] = assay: Antifungal activity against Candida albicans ATCC 10231 at 400 ug after 24 to 48 hr by disk diffusion method; assay type: functional; conditions: for zone of inhibition at 400 µg/disc: read-out: DIZ
Candida albicans [15] = assay: Antifungal activity against Candida albicans ATCC 90028 at 400 ug after 24 to 48 hr by disk diffusion method; assay type: functional; conditions: for zone of inhibition at 400 µg/disc: read-out: DIZ
[16] = system: Bordetella bronchiseptica; assay: Antibacterial activity against Bordetella bronchiseptica ATCC 461 at 400 ug after 18 hr by disk diffusion method; assay type: functional; conditions: for zone of inhibition at 400 µg/disc: ATCC 461, 18 h, read-out: DIZ
Pseudomonas aeruginosa [17] = assay: Antibacterial activity against Pseudomonas aeruginosa ATCC 15442 at 400 ug after 18 hr by disk diffusion method; assay type: functional; conditions: for zone of inhibition at 400 µg/disc: ATCC 15442, 18 h, read-out: DIZ
Pseudomonas aeruginosa [18] = assay: Antibacterial activity against Pseudomonas aeruginosa NCTC 6749 at 400 ug after 18 hr by disk diffusion method; assay type: functional, organism-based
Proteus vulgaris [19] = assay: Antibacterial activity against Proteus vulgaris NCTC 4635 at 400 ug after 18 hr by disk diffusion method; assay type: functional; conditions: for zone of inhibition at 400 µg/disc: NCTC 4635, 18 h, read-out: DIZ
Escherichia coli [20] = assay: Antibacterial activity against Escherichia coli NCTC 8196 at 400 ug after 18 hr by disk diffusion method; assay type: functional; conditions: for zone of inhibition at 400 µg/disc: NCTC 8196, 18 h, read-out: DIZ
Escherichia coli [21] = assay: Antibacterial activity against Escherichia coli ATCC 25922 at 400 ug after 18 hr by disk diffusion method; assay type: functional
Escherichia coli [22] = assay: Antibacterial activity against Escherichia coli ATCC 10538 at 400 ug after 18 hr by disk diffusion method; assay type: functional
Enterococcus hirae [23] = assay: Antibacterial activity against Enterococcus hirae ATCC 10541 at 400 ug after 18 hr by disk diffusion method; assay type: functional; conditions: for zone of inhibition at 400 µg/disc: ATCC 10541, 18 h, read-out: DIZ
Bacillus subtilis [24] = assay: Antibacterial activity against Bacillus subtilis ATCC 6633 at 400 ug after 18 hr by disk diffusion method; assay type: functional; conditions: for zone of inhibition at 400 µg/disc: ATCC 6633, 18 h, read-out: DIZ
Staphylococcus aureus [25] = assay: Antibacterial activity against Staphylococcus aureus ATCC 6538P at 400 ug after 18 hr by disk diffusion method; assay type: functional; conditions: for zone of inhibition at 400 µg/disc: read-out: DIZ
Staphylococcus aureus [26] = assay: Antibacterial activity against Staphylococcus aureus ATCC 29213 at 400 ug after 18 hr by disk diffusion method; assay type: functional; conditions: for zone of inhibition at 400 µg/disc: ATCC 29213, 18 h, read-out: DIZ
Staphylococcus aureus [27] = assay: Antibacterial activity against Staphylococcus aureus NCTC 4163 at 400 ug after 18 hr by disk diffusion method; assay type: functional; conditions: for zone of inhibition at 400 µg/disc: NCTC 4163, 18 h, read-out: DIZ
Staphylococcus aureus [28] = assay: Antibacterial activity against Staphylococcus aureus ATCC 25923 at 400 ug after 18 hr by disk diffusion method; assay type: functional; conditions: for zone of inhibition at 400 µg/disc: ATCC 25923, 18 h, read-out: DIZ
Candida parapsilosis [29] = assay: Antifungal activity against Candida parapsilosis ATCC 22019 after 18 hr; assay type: functional; conditions: Lodderomyces parapsilosis, ATCC 22019, 18 h
Candida albicans [30] = assay: Antifungal activity against Candida albicans ATCC 90028 after 18 hr; assay type: functional; conditions: ATCC 90028, 18 h
[31] = system: Bordetella bronchiseptica; assay: Antibacterial activity against Bordetella bronchiseptica ATCC 461 after 18 hr; assay type: functional, organism-based
Candida albicans [32] = assay: Antifungal activity against Candida albicans ATCC 10231 after 18 hr; assay type: functional; conditions: ATCC 10231, 18 h
[33] = Cytotoxicity against Homo sapiens (human) MT4 cells after 96 hr by MTT assay; assay type: cell-based
[34] = system: Human immunodeficiency virus 1; assay: Antiviral activity against Human immunodeficiency virus 1 infected human MT4 cells assessed as inhibition of virus-induced cytopathogenicity after 4 days by MTT assay; assay type: functional, organism-based; conditions: Human immunodeficiency virus 1, MT4, 96 h

CC(C)NCC(O)COc1c(Br)c(Br)c(Br)c2c1OC(C)(C)C2 (configuration not stated)
MIC (Pseudomonas aeruginosa [1]): 12.5 µg/mL (≈ 24.2 µM)
MIC (Proteus vulgaris [2]): 12.5 µg/mL (≈ 24.2 µM)
MIC (Pseudomonas aeruginosa [3]): inactive
MIC (Escherichia coli [4]): inactive
MIC (Escherichia coli [5]): inactive
MIC (Enterococcus hirae [6]): 25 µg/mL (≈ 48.4 µM)
MIC (Escherichia coli [7]): inactive
MIC (Bacillus subtilis [8]): 12.5 µg/mL (≈ 24.2 µM)
MIC (Staphylococcus aureus [9]): 25 µg/mL (≈ 48.4 µM)
MIC (Staphylococcus aureus [10]): 25 µg/mL (≈ 48.4 µM)
MIC (Staphylococcus aureus [11]): 50 µg/mL (≈ 96.9 µM)
MIC (Staphylococcus aureus [12]): 25 µg/mL (≈ 48.4 µM)
zone of inhibition at 400 µg/disc (Candida parapsilosis [13]): 17 mm
zone of inhibition at 400 µg/disc (Candida albicans [14]): 16 mm
zone of inhibition at 400 µg/disc (Candida albicans [15]): 15 mm
zone of inhibition at 400 µg/disc [16]: 11 mm
zone of inhibition at 400 µg/disc (Pseudomonas aeruginosa [17]): 22 mm
diameter of the inhibition zone (DIZ) (Pseudomonas aeruginosa [18]): inactive
zone of inhibition at 400 µg/disc (Proteus vulgaris [19]): 24 mm
zone of inhibition at 400 µg/disc (Escherichia coli [20]): 11 mm
diameter of the inhibition zone (DIZ) (Escherichia coli [21]): inactive
diameter of the inhibition zone (DIZ) (Escherichia coli [22]): inactive
zone of inhibition at 400 µg/disc (Enterococcus hirae [23]): 17 mm
zone of inhibition at 400 µg/disc (Bacillus subtilis [24]): 23 mm
zone of inhibition at 400 µg/disc (Staphylococcus aureus [25]): 21 mm
zone of inhibition at 400 µg/disc (Staphylococcus aureus [26]): 20 mm
zone of inhibition at 400 µg/disc (Staphylococcus aureus [27]): 20 mm
zone of inhibition at 400 µg/disc (Staphylococcus aureus [28]): 18 mm
MIC (Candida parapsilosis [29]): 100 µg/mL (≈ 194 µM)
MIC (Candida albicans [30]): 200 µg/mL (≈ 388 µM)
MIC [31]: inactive
MIC (Candida albicans [32]): 200 µg/mL (≈ 388 µM)

CN(C)CC(O)COc1c(Br)c(Br)c(Br)c2c1OC(C)(C)C2 (configuration not stated)
MIC (Pseudomonas aeruginosa [1]): 25 µg/mL (≈ 49.8 µM)
MIC (Proteus vulgaris [2]): 25 µg/mL (≈ 49.8 µM)
MIC (Pseudomonas aeruginosa [3]): inactive
MIC (Escherichia coli [4]): inactive
MIC (Escherichia coli [5]): inactive
MIC (Enterococcus hirae [6]): 50 µg/mL (≈ 99.6 µM)
MIC (Escherichia coli [7]): inactive
MIC (Bacillus subtilis [8]): 12.5 µg/mL (≈ 24.9 µM)
MIC (Staphylococcus aureus [9]): 100 µg/mL (≈ 199 µM)
MIC (Staphylococcus aureus [10]): 50 µg/mL (≈ 99.6 µM)
MIC (Staphylococcus aureus [11]): 50 µg/mL (≈ 99.6 µM)
MIC (Staphylococcus aureus [12]): 100 µg/mL (≈ 199 µM)
zone of inhibition at 400 µg/disc (Candida parapsilosis [13]): 20 mm
zone of inhibition at 400 µg/disc (Candida albicans [14]): 17 mm
zone of inhibition at 400 µg/disc (Candida albicans [15]): 15 mm
zone of inhibition at 400 µg/disc [16]: 13 mm
zone of inhibition at 400 µg/disc (Pseudomonas aeruginosa [17]): 23 mm
diameter of the inhibition zone (DIZ) (Pseudomonas aeruginosa [18]): inactive
zone of inhibition at 400 µg/disc (Proteus vulgaris [19]): 23 mm
zone of inhibition at 400 µg/disc (Escherichia coli [20]): 15 mm
zone of inhibition at 400 µg/disc (Escherichia coli [21]; ATCC 25922, 18 h, read-out: DIZ): 13 mm
zone of inhibition at 400 µg/disc (Escherichia coli [22]; ATCC 10538, 18 h, read-out: DIZ): 13 mm
zone of inhibition at 400 µg/disc (Enterococcus hirae [23]): 19 mm
zone of inhibition at 400 µg/disc (Bacillus subtilis [24]): 24 mm
zone of inhibition at 400 µg/disc (Staphylococcus aureus [25]): 19 mm
zone of inhibition at 400 µg/disc (Staphylococcus aureus [26]): 19 mm
zone of inhibition at 400 µg/disc (Staphylococcus aureus [27]): 18 mm
zone of inhibition at 400 µg/disc (Staphylococcus aureus [28]): 18 mm
MIC (Candida parapsilosis [29]): 100 µg/mL (≈ 199 µM)
MIC (Candida albicans [30]): 200 µg/mL (≈ 398 µM)
MIC [31]: inactive
MIC (Candida albicans [32]): 200 µg/mL (≈ 398 µM)

CC1(C)Cc2cccc(O)c2O1
diameter of the inhibition zone (DIZ) (Candida parapsilosis [13]): inactive
diameter of the inhibition zone (DIZ) (Candida albicans [14]): inactive
diameter of the inhibition zone (DIZ) (Candida albicans [15]): inactive
diameter of the inhibition zone (DIZ) [16]: inactive
diameter of the inhibition zone (DIZ) (Pseudomonas aeruginosa [17]): inactive
diameter of the inhibition zone (DIZ) (Pseudomonas aeruginosa [18]): inactive
diameter of the inhibition zone (DIZ) (Proteus vulgaris [19]): inactive
diameter of the inhibition zone (DIZ) (Escherichia coli [20]): inactive
diameter of the inhibition zone (DIZ) (Escherichia coli [21]): inactive
diameter of the inhibition zone (DIZ) (Escherichia coli [22]): inactive
diameter of the inhibition zone (DIZ) (Enterococcus hirae [23]): inactive
diameter of the inhibition zone (DIZ) (Bacillus subtilis [24]): inactive
diameter of the inhibition zone (DIZ) (Staphylococcus aureus [25]): inactive
diameter of the inhibition zone (DIZ) (Staphylococcus aureus [26]): inactive
diameter of the inhibition zone (DIZ) (Staphylococcus aureus [27]): inactive
diameter of the inhibition zone (DIZ) (Staphylococcus aureus [28]): inactive
CC50 at 96 h [33]: 100 µM
EC50 [34]: > 100 µM
